Experiments:
[1] = Test for linoleic acid autooxidation inhibitory effect; assay type: biochemical; details: sample 0.01% (w/v) in ethanol, stored in darkness at 40° C., degree of oxidation after two weeks, FIGS. 1 and 2
Method: <Test for Linoleic Acid Autooxidation Inhibitory Effect> 2 ml of 2.5% (w/v) linoleic acid was mixed with 4 ml of a 0.05 M phosphate buffer (pH 7.0) to prepare a reaction liquid. The compound of the present invention was dissolved in 99.5% ethanol at a concentration of 0.01% (w/v) 2 ml of the resulting solution and 2 ml of distilled water were added to the reaction liquid to make the total volume to 10 ml, mixed, and placed in a brown threaded bottle to prepare a sample. A negative control was prepared by adding, to the reaction liquid, only 2 ml of 99.5% ethanol and 2 ml of distilled water, without adding anything else. […] The measurement was carried out by mixing 0.1 ml of a sample, 9.7 ml of 75% ethanol, and 0.1 ml of a 30% ammonium thiocyanate solution, adding 0.1 ml of 2×10^−2 M ferrous chloride (3.5% hydrochloric acid solution) thereto, and exactly 3 minutes later, measuring the absorbance at 500 nm. From the measured values, the difference in absorbance and the rate of autooxidation after two weeks were obtained. The same measurement was made with the blanks, and ΔAbsorbance=(Absorbance of Main Sample)−(Absorbance of Blank) was taken. The absorbance increases with oxidation of the sample, and after reaching the maximum, decreases with consumption of the sample to be oxidized. Thus earlier occurrence of the peak absorbance represents weaker antioxidative activity. […]

[2] = DPPH radical scavenging test; assay type: biochemical; details: concentration of the sample solution; acetate buffer pH 5.5, 30° C., 30 minutes, absorbance at 517 nm
Method: The antioxidative activity of the compound of not lower than 95% purity of the present invention prepared in Example 1 was evaluated using a stable radical, 1,1-diphenyl-2-picrylhydrazyl (DPPH).
To 1600 μl of 250 mM acetate buffer (pH=5.5), 1200 μl of ethanol and 400 μl of a sample (at an arbitrary concentration in ethanol) were mixed, and pre-incubated at 30° C. for 5 minutes. 800 μl of a 500 μM DPPH/ethanol solution was added, mixed, and left to stand at 30° C. for 30 minutes. Then the absorbance of the sample at 517 nm was measured.
A negative control was prepared by adding, instead of the sample solution, only ethanol to the reaction liquid without adding anything else. A positive control was prepared in the same way as for the present compound at the same concentration in ethanol, except that the present compound was replaced with α-tocopherol. From the measured absorbances, the radical scavenging ratio was calculated in accordance with the following formula. Scavenging ratio (%)=(1−[Absorbance of Sample]/[Absorbance of Control])×100
The scavenging ratios were measured with the sample concentration in the sample solution being changed stepwise, to determine the concentration of the sample solution at which the DPPH radical scavenging ratio was 50%. This concentration was taken as the 50% DPPH radical scavenged concentration. […]

Structure (SMILES): O=C(O)c1cc(O)c(O)c(O)c1 [gallic acid]
- antioxidative activity (oxidation inhibitory effect on linoleic acid) [1]: weaker oxidation inhibitory effect on linoleic acid

Structure (SMILES): Cc1c(C)c2c(c(C)c1O)CC[C@@](C)(CCC[C@H](C)CCC[C@H](C)CCCC(C)C)O2 [α-tocopherol]
- 50% DPPH radical scavenged concentration [2]: 121.5 µg/mL

— patent US7074907B2, “Compound, process for producing the same and use thereof” (Nichirei Biosciences Inc., priority 2003, dated 2006)
